According to US20070287699A1, “ANTIVIRAL AGENTS” (ViroBay, Inc., priority 2006, published 2007):

Tested on: HCV replicon RNA replication in human Huh7 hepatoma cells
Assay: HCV replicon assay (activity levels from either or both of HCV replicon assay 1, Huh7/Clone A RT-qPCR, and assay 2, Huh7 ET luc-ubi-neo/ET)
Assay type: cell-based, Hepatitis C virus (HCV)
Conditions: Hepatitis C virus, Huh-7, either or both HCV replicon assays: Huh7/Clone A, 48 hours, 72 hours, Luc activity or RT-PCR, read-out: inhibit HCV replication at IC50 levels or estimated IC50 levels
How it was run: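 Huh7/Clone A subgenomic replicon cells treated 48 h at 37° C. with 7 serial dilutions in triplicate (0.5% DMSO final). Replicon RNA measured by TaqMan RT-qPCR on the neo gene, normalized to RiboGreen total RNA; untreated cells set as 100% for IC50.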

| SMILES | IC50 [µM] |
| --- | --- |
| CC(C)(c1ccccc1)c1nc(-c2cn(C(C)(C)c3ccccc3)c3cc(N4CCOCC4)c(F)cc3c2=O)no1 [Compound 144, 6-fluoro-7-morpholino-1-(2-phenylpropan-2-yl)-3-(5-(2-phenylpropan-2-yl)-1,2,4-oxadiazol-3-yl)quinolin-4(1H)-one] | > 10 |
| C[C@H](c1ccccc1)n1cc(-c2noc(C(C)(C)c3ccccc3)n2)c(=O)c2cc(F)c(N3CCOCC3)cc21 [Compound 145, (R)-6-fluoro-7-morpholino-1-(1-phenylethyl)-3-(5-(2-phenylpropan-2-yl)-1,2,4-oxadiazol-3-yl)quinolin-4(1H)-one] | > 10 |
| CC(C)(c1ccccc1)c1nc(-c2cn(Cc3ccc(C(F)(F)F)cc3)c3cc(N4CCOCC4)c(F)cc3c2=O)no1 [Compound 146, 6-fluoro-7-morpholino-3-(5-(2-phenylpropan-2-yl)-1,2,4-oxadiazol-3-yl)-1-(4-(trifluoromethyl)benzyl)quinolin-4(1H)-one] | < 0.5 |
| CC(C)(c1ccc(F)cc1)c1nc(-c2cn(Cc3ccc(F)cc3)c3cc(N4CCS(=O)(=O)CC4)c(F)cc3c2=O)no1 [Compound 151, 7-(1,1-dioxo-thiomorpholine)-6-fluoro-3-(5-(2-(4-fluorophenyl)propan-2-yl)-1,2,4-oxadiazol-3-yl)-1-(4-(fluoro)benzyl)quinolin-4(1H)-one] | < 10 |
| CN(C)c1cc2c(cc1F)c(=O)c(-c1noc(C(C)(C)c3ccccc3)n1)cn2Cc1ccc(C(F)(F)F)cc1 [Compound 152, 7-(dimethylamino)-6-fluoro-3-(5-(2-phenylpropan-2-yl)-1,2,4-oxadiazol-3-yl)-1-(4-(trifluoromethyl)benzyl)quinolin-4(1H)-one] | < 0.5 |
| CN(C)c1cc2c(cc1F)c(=O)c(-c1noc(C(C)(C)c3ccc(F)cc3)n1)cn2Cc1ccc(C(F)(F)F)cc1 [Compound 153, 7-(dimethylamino)-6-fluoro-3-(5-(2-(4-fluorophenyl)propan-2-yl)-1,2,4-oxadiazol-3-yl)-1-(4-(trifluoromethyl)benzyl)quinolin-4(1H)-one] | < 2 |
| CN(C)c1cc2c(cc1F)c(=O)c(-c1noc(C(C)(C)c3ccccc3)n1)cn2Cc1ccc(F)cc1 [Compound 154, 7-(dimethylamino)-6-fluoro-1-(4-fluorobenzyl)-3-(5-(2-phenylpropan-2-yl)-1,2,4-oxadiazol-3-yl)quinolin-4(1H)-one] | < 2 |
| CC(C)(c1ccc(F)cc1)c1nc(-c2cn(Cc3ccc(F)cc3)c3cc(F)c(F)cc3c2=O)no1 [Compound 155, 6,7-difluoro-1-(4-fluorobenzyl)-3-(5-(2-(4-fluorophenyl)propan-2-yl)-1,2,4-oxadiazol-3-yl)quinolin-4(1H)-one] | > 10 |
| CC(C)(c1ccc(F)cc1)c1nc(-c2cn(Cc3ccc(F)cc3)c3ccccc3c2=O)no1 [Compound 156, 1-(4-fluorobenzyl)-3-(5-(2-(4-fluorophenyl)propan-2-yl)-1,2,4-oxadiazol-3-yl)quinolin-4(1H)-one] | > 10 |
| CC(C)(c1ccc(F)cc1)c1nnc(-c2cn(Cc3ccc(C(F)(F)F)cc3)c3cc(N4CCOCC4)c(F)cc3c2=O)o1 [Compound 161, 6-fluoro-3-(5-(2-(4-fluorophenyl)propan-2-yl)-1,3,4-oxadiazol-2-yl)-7-morpholino-1-(4-(trifluoromethyl)benzyl)quinolin-4(1H)-one] | < 2 |
| COc1cc2c(=O)c(-c3nnc(Cc4ccc(Cl)cc4)o3)cn(Cc3ccc(Cl)cc3)c2cc1OC [Compound 162, 1-(4-chloro-benzyl)-3-[5-(4-chloro-benzyl)-[1,3,4]oxadiazol-2-yl]-6,7-dimethoxy-1H-quinolin-4-one] | > 10 |
| COc1cc2c(=O)c(-c3nnc(Cc4ccc(Cl)cc4)o3)cn(CC3CCCCC3)c2cc1OC [Compound 163, 3-[5-(4-chloro-benzyl)-[1,3,4]oxadiazol-2-yl]-1-cyclohexylmethyl-6,7-dimethoxy-1H-quinolin-4-one] | > 10 |
| CN1CCN(c2cc3c(cc2F)c(=O)c(-c2nnc(Cc4ccccc4)o2)cn3Cc2ccc(Cl)cc2)CC1 [Compound 164, 3-(5-benzyl-[1,3,4]oxadiazol-2-yl)-1-(4-chloro-benzyl)-6-fluoro-7-(4-methyl-piperazin-1-yl)-1H-quinolin-4-one] | < 10 |
| CN1CCN(c2cc3c(cc2F)c(=O)c(-c2nnc(Cc4ccccc4)o2)cn3Cc2ccc(C(F)(F)F)cc2F)CC1 [Compound 165, 3-(5-benzyl-[1,3,4]oxadiazol-2-yl)-1-(4-(2-fluoro-4-trifluormethyl)-benzyl)-6-fluoro-7-(4-methyl-piperazin-1-yl)-1H-quinolin-4-one] | < 2 |
| CC(C)(c1ccccc1)c1nnc(-c2cn(Cc3ccc(C(F)(F)F)cc3)c3cc(N4CCOCC4)c(F)cc3c2=O)o1 [Compound 167, 6-fluoro-7-morpholino-3-(5-(2-phenylpropan-2-yl)-1,3,4-oxadiazol-2-yl)-1-(4-(trifluoromethyl)benzyl)quinolin-4(1H)-one] | < 2 |
| COc1cc2c(=O)c(-c3nc(Cc4ccccc4)no3)cn(Cc3ccc(Cl)cc3)c2cc1OC [Compound 169, 3-(3-benzyl-[1,2,4]oxadiazol-5-yl)-1-(4-chloro-benzyl)-6,7-dimethoxy-1H-quinolin-4-one] | > 10 |
| COc1cc2c(=O)c(-c3nc(Cc4ccccc4)no3)cn(CC3CCCCC3)c2cc1OC [Compound 170, 3-(3-benzyl-[1,2,4]oxadiazol-5-yl)-1-cyclohexylmethyl-6,7-dimethoxy-1H-quinolin-4-one] | > 10 |
| CC(C)(c1ccccc1)c1noc(-c2cn(Cc3ccc(C(F)(F)F)cc3)c3cc(N4CCOCC4)c(F)cc3c2=O)n1 [Compound 171, 6-fluoro-7-morpholino-3-(3-(2-phenylpropan-2-yl)-1,2,4-oxadiazol-5-yl)-1-(4-(trifluoromethyl)benzyl)quinolin-4(1H)-one] | > 10 |
| O=c1c(-c2nc(Cc3ccc(F)cc3)no2)cn(Cc2ccc(C(F)(F)F)cc2)c2cc(N3CCOCC3)c(F)cc12 [Compound 172, 6-fluoro-3-(3-(4-fluorobenzyl)-1,2,4-oxadiazol-5-yl)-7-morpholino-1-(4-(trifluoromethyl)benzyl)quinolin-4(1H)-one] | > 10 |
| CC(C)(c1ccc(F)cc1)c1noc(-c2cn(Cc3ccc(C(F)(F)F)cc3)c3cc(N4CCOCC4)c(F)cc3c2=O)n1 [Compound 173, 6-fluoro-3-(3-(2-(4-fluorophenyl)propan-2-yl)-1,2,4-oxadiazol-5-yl)-7-morpholino-1-(4-(trifluoromethyl)benzyl)quinolin-4(1H)-one] | > 10 |
| O=c1c(-c2ncc(Cc3ccccc3)o2)cn(Cc2ccc(Cl)cc2)c2ccc(OCCCN3CCOCC3)cc12 [Compound 176, 3-(5-benzyl-oxazol-2-yl)-1-(4-chloro-benzyl)-6-(3-morpholin-4-yl-propoxy)-1H-quinolin-4-one] | < 10 |
| O=c1c(-c2noc(Cc3ccc(Cl)cc3)n2)cn(Cc2ccc(C(F)(F)F)cc2F)c2c1CNCC2 [Compound 178, 3-[5-(4-chloro-benzyl)-[1,2,4]oxadiazol-3-yl]-1-(2-fluoro-4-trifluoromethyl-benzyl)-5,6,7,8-tetrahydro-1H-[1,6]naphthyridin-4-one] | < 10 |
